# Active and inactive are the calls of the source.
# Columns and labels:
# [1] = biological target: Peroxisome proliferator-activated receptor gamma/Nuclear receptor coactivator 2 (Homo sapiens, UniProt P37231); format: functional;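 note: agonist potency for raising coactivator recruitment to the receptor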
# [2] = biological target: Peroxisome proliferator-activated receptor gamma/Nuclear receptor coactivator 1 (Homo sapiens, UniProt P37231); format: functional;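 note: agonist potency as compounds enhance coactivator SRC-1 recruitment to PPARgamma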
# Peroxisome proliferator-activated receptor gamma/Nuclear receptor coactivator 1, sequence (P37231 whole entry): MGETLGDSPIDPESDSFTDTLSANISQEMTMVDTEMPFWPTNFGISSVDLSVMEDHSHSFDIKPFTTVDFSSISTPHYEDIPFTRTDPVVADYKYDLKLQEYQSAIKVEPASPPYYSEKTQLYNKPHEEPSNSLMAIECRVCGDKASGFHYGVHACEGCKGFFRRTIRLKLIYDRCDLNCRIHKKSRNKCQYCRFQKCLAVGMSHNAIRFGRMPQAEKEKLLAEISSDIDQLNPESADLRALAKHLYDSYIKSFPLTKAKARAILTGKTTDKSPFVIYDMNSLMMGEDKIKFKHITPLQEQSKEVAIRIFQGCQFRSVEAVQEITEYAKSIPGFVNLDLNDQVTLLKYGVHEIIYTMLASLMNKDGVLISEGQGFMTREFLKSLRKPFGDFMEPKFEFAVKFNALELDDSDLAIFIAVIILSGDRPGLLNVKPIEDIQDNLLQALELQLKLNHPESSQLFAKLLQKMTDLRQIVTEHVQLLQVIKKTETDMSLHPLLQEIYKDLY
# Peroxisome proliferator-activated receptor gamma/Nuclear receptor coactivator 1, sequence (Q15788 whole entry, further chain): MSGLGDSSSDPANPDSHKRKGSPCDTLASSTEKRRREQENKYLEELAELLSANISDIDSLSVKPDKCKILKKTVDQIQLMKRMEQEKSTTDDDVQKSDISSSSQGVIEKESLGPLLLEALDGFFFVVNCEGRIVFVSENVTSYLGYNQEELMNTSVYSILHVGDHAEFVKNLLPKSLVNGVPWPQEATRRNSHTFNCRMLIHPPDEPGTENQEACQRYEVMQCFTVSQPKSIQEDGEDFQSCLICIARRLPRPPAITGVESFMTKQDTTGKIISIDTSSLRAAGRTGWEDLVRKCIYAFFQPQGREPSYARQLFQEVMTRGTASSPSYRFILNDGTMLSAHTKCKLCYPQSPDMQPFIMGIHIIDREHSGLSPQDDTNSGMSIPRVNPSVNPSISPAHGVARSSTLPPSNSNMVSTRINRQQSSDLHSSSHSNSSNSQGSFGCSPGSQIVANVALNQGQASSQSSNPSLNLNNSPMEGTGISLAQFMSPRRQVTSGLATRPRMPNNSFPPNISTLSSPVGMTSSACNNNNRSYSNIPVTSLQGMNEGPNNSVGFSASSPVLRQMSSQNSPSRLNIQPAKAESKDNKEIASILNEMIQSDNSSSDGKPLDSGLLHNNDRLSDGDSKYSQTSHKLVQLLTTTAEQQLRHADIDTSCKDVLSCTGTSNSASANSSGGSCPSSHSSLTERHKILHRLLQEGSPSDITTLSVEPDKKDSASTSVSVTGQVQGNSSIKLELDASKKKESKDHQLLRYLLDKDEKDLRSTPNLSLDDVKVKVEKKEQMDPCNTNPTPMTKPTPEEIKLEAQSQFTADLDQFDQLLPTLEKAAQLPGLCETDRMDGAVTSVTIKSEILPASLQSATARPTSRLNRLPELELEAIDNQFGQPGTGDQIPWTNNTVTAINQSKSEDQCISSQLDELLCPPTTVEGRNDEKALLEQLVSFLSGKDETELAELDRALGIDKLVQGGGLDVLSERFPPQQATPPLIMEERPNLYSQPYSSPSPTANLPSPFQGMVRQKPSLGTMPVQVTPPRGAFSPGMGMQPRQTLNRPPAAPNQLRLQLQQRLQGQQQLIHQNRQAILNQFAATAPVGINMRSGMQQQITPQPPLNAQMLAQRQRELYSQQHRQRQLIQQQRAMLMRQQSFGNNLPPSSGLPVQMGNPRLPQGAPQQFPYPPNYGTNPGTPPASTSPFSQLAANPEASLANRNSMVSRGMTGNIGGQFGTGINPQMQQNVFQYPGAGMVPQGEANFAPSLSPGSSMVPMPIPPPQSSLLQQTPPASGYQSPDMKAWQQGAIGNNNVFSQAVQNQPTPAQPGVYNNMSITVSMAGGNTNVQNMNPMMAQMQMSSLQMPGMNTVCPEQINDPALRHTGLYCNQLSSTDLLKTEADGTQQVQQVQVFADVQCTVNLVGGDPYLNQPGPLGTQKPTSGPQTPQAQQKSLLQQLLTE
# [3] = biological target: Peroxisome proliferator-activated receptor gamma/Nuclear receptor coactivator 3 (Homo sapiens, UniProt P37231); format: functional;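 note: agonist potency for raising coactivator recruitment to the receptor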
# Estrogen receptor = biological target: T1, Estrogen receptor (Homo sapiens, UniProt P03372); assay: ERα coactivator recruitment enhancers – biochemical, TR-FRET, ERα LBD, dose response (AID 737)
# T1 sequence (P03372 whole entry): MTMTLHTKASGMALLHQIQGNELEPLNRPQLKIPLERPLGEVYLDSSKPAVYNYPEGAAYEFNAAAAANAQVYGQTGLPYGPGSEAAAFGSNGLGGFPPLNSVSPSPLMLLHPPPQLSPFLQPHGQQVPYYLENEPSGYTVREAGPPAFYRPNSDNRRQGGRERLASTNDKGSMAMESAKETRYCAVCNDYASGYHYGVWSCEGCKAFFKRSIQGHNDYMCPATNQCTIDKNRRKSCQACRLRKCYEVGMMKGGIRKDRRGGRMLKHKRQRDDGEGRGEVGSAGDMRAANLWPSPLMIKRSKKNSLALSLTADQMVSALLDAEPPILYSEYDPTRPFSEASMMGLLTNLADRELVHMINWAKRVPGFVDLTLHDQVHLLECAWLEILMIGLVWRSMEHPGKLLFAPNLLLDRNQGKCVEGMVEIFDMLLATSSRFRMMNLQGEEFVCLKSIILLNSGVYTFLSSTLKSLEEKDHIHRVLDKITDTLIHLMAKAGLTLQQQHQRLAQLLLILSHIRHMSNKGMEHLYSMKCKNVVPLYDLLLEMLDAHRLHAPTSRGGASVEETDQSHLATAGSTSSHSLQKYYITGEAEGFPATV
# Aspartyl aminopeptidase = Aspartyl aminopeptidase (Plasmodium falciparum 3D7, UniProt Q8I2J3); assay: Counterscreen for inhibitors of M1 and M17 aminopeptidases: QFRET-based biochemical high throughput dose response assay for inhibitors of the Plasmodium falciparum M18 Aspartyl Aminopeptidase (PFM18AAP). [Related PubChem assays: 1619 (Screening assay (M17LAP inhibitors).), 1445 (Screening assay (M1AAP inhibitors).)]
# Aminopeptidase N = biological target: T2, Aminopeptidase N (Plasmodium falciparum FcB1/Columbia, UniProt O96935); assay: malaria alanyl aminopeptidase activity blockers – biochemical, fluorogenic H-Leu-NHMec substrate, 1536-well (AID 1445); design: species or system Plasmodium falciparum 3D7, 3D7
# T2 sequence (O96935 whole entry): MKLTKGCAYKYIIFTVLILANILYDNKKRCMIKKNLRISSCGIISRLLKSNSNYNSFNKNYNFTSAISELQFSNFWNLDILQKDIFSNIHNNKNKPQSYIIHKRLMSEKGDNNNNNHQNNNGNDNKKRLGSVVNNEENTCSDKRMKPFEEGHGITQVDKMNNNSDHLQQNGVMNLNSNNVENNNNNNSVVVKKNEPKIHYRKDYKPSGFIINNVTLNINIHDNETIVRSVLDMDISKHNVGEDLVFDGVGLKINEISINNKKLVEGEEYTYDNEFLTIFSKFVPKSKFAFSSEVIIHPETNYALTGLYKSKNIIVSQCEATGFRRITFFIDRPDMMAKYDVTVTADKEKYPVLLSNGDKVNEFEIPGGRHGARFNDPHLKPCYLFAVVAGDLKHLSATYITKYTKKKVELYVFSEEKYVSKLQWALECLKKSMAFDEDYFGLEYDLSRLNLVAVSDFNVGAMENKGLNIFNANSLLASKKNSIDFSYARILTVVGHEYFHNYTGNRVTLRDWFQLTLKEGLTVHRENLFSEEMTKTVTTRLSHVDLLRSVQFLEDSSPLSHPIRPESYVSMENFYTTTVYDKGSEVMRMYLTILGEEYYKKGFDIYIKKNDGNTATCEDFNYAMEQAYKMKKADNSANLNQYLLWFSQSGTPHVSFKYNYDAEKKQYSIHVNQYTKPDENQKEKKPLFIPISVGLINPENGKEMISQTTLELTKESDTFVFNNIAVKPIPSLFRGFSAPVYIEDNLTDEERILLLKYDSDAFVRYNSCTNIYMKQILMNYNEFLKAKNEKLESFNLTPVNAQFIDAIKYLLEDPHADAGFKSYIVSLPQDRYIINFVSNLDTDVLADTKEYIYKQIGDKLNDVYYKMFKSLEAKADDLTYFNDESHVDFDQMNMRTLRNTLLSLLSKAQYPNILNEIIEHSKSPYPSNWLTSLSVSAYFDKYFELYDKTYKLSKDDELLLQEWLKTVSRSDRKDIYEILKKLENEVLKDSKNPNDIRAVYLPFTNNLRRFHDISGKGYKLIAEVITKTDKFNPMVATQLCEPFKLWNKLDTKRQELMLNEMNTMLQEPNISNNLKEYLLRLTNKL
# Procathepsin L = Procathepsin L (Homo sapiens, UniProt P07711); assay: CTSL1 protease inhibition – biochemical, QFRET, 1536-well, counter-screen for M1/M17 aminopeptidase inhibitor project, dose response (AID 2214)
# [4] = biological target: T3, E3 ubiquitin-protein ligase XIAP (Homo sapiens, UniProt P98170); assay: Counter Screen using XIAP-Bir3 for Chemical Antagonists of Bir1/2 domains of IAP-family anti-apoptotic proteins. [Related pubchem assays (depositor defined):AID1018, AID1449, AID1514, AID1638, AID1749, AID1750, AID488957, AID488963]
# T3 sequence (P98170 whole entry): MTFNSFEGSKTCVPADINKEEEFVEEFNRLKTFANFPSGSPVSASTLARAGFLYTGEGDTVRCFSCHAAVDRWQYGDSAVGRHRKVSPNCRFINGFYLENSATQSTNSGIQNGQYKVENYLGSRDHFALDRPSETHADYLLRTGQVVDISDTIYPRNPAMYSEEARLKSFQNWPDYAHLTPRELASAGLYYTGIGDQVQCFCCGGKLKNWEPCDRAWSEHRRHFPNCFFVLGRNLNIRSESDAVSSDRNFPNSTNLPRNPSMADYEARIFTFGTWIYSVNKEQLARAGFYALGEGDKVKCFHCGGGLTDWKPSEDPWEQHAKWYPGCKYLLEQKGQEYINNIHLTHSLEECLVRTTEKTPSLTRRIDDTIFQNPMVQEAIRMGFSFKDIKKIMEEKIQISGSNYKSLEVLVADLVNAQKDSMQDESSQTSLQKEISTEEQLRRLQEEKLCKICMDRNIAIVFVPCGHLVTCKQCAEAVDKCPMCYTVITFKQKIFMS
# [5] = biological target: T3, E3 ubiquitin-protein ligase XIAP; assay: small molecules displacing peptide from XIAP – biochemical, IAP family, fluorescence polarization (AID 1018); format: functional
# Streptokinase A = biological target: T4, Streptokinase A (Streptococcus pyogenes serotype M1, UniProt P10520); assay: viability-normalized secreted streptokinase activity reduction – plasminogen activation absorbance, OD405, dose response (AID 1914); format: functional, Streptococcus pyogenes M1 GAS;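 note: secreted streptokinase activity via plasminogen activation per viability signal from cell pellet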
# T4 sequence (P10520 whole entry): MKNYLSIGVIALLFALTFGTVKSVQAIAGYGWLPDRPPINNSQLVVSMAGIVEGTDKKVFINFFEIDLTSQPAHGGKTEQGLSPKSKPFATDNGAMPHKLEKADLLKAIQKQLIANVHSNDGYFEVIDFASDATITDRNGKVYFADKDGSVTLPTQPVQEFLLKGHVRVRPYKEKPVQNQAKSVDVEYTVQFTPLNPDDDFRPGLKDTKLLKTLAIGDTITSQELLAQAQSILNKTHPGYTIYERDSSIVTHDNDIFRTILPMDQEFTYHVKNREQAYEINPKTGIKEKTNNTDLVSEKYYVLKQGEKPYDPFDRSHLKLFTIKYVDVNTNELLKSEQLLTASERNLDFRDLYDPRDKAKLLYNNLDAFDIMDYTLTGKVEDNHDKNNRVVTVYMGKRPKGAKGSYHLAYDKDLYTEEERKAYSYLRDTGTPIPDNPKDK
# [6] = biological target: Aryl hydrocarbon receptor (Homo sapiens, UniProt P35869); assay: Luminescence-based cell-based high throughput dose response assay for activators of the Aryl Hydrocarbon Receptor (AHR). [Related pubchem assays: 2796 (Primary screen (AHR activators in singlicate)), 2845 (Confirmation screen (AHR activators in triplicate)), 434939 (Counterscreen (PXR activators in triplicate)), 2804 (Summary (AHR activators))]; format: ADME
# [7] = biological target: Mitogen-activated protein kinase 10 (Homo sapiens, UniProt P53779); assay: Dose response biochemical screening assay for inhibitors of c-Jun N-Terminal Kinase 3 (JNK3). [Related pubchem assays: 746 ]
# Mitogen-activated protein kinase 10, sequence (P53779 whole entry): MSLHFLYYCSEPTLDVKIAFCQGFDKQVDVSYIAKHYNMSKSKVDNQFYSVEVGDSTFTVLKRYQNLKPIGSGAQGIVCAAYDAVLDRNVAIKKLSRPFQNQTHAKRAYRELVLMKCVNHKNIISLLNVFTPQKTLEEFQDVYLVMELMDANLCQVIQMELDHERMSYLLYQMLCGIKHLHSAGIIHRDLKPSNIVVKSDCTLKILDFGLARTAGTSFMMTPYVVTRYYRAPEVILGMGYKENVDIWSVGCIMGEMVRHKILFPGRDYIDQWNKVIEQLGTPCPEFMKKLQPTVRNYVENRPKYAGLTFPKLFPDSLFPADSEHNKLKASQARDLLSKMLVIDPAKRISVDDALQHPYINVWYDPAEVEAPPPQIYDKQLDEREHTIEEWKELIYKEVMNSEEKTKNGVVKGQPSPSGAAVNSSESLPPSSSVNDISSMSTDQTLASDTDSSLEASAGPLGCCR
# [8] = biological target: T5, Ubiquitin-conjugating enzyme E2 N (Homo sapiens, UniProt P61088); format: functional;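 note: Dose-response confirmation in a TR-FRET assay detecting UBC13-driven polyubiquitin chain formation, inhibition measured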
# T5 sequence (P61088 whole entry): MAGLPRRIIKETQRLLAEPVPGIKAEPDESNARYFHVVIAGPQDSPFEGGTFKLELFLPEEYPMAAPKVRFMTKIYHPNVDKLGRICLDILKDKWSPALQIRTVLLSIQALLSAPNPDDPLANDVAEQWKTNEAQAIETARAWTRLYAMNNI
# [9] = biological target: T6, Carboxy-terminal domain RNA polymerase II polypeptide A small phosphatase 1 (Homo sapiens, UniProt Q9GZU7); assay: CTDSP1 inhibitors, concentration-response, biochemical, absorbance readout, ultra-high-throughput screen actives (AID 540297); format: functional
# T6 sequence (Q9GZU7 whole entry): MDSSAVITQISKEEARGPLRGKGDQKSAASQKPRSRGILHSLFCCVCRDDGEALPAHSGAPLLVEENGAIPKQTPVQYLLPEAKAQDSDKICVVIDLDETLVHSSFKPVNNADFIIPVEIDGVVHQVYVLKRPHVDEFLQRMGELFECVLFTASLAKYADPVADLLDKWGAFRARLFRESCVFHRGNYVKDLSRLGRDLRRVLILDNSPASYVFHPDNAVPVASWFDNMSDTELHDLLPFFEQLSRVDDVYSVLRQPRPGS
# Peroxisome proliferator-activated receptor gamma/Nuclear receptor coactivator 2, sequence (P37231 whole entry): as the sequence (P37231 whole entry) above
# Peroxisome proliferator-activated receptor gamma/Nuclear receptor coactivator 2, sequence (Q15596 whole entry, further chain): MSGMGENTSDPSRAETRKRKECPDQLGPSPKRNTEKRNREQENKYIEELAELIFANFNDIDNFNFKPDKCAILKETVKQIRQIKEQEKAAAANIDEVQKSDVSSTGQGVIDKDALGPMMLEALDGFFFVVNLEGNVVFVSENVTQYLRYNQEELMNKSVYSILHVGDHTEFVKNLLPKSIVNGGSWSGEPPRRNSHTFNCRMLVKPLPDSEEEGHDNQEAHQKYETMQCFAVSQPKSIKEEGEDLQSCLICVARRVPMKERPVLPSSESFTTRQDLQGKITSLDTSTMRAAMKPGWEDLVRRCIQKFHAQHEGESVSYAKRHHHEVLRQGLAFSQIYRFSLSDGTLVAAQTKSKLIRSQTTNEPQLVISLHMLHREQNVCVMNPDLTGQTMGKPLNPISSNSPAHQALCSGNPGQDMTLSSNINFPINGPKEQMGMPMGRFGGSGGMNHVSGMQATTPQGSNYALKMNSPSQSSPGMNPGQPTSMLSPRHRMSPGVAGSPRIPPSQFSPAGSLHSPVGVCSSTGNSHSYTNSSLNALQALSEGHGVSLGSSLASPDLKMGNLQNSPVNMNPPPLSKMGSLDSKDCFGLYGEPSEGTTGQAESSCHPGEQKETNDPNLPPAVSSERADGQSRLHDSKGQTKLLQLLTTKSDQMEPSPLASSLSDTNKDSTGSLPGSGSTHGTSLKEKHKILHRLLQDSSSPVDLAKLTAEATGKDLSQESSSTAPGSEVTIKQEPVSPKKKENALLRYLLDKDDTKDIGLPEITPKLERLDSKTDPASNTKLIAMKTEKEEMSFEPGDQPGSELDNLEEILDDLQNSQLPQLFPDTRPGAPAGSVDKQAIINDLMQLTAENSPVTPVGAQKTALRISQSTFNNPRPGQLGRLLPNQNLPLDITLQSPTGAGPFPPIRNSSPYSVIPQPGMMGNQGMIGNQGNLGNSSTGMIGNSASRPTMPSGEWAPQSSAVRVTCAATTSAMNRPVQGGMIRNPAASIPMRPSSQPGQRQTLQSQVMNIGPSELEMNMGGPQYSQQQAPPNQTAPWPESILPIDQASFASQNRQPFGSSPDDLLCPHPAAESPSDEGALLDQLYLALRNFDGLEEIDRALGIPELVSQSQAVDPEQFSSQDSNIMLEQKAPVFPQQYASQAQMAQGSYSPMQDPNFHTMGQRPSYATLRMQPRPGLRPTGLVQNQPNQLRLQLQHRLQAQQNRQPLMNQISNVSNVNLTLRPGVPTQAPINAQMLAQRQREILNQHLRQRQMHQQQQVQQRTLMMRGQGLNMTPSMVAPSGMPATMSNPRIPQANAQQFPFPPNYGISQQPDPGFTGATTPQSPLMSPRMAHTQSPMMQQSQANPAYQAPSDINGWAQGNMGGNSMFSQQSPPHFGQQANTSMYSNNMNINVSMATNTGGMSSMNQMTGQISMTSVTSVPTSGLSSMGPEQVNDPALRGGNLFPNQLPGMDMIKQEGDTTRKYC
smiles,measurement,setting,value
O=C(COC(=O)c1sc2ccccc2c1Cl)Nc1ncc(Cl)cc1Cl,EC50,[1],18.8 µM (not active)
same,EC50,[2],21.6 µM (not active)
same,EC50,[3],25.5 µM (not active)
NC(=O)c1oc2ccccc2c1NC(=O)c1nc2ccccc2s1,EC50,Estrogen receptor,13.4 µM (active)
O=C(O)CCC(=O)N1N=C(c2c(O)nc3ccc(Cl)cc3c2-c2ccccc2)CC1c1cccs1 (stereo unspecified),IC50,Aspartyl aminopeptidase,> 73.5 µM (not active)
same,IC50,Aminopeptidase N,5.76 µM (active)
same,IC50,Procathepsin L,> 59.6 µM (not active)
CCCN1Cc2cccc(C(=O)Nc3ccc4c(c3)OCO4)c2C1=O,IC50,[4],> 100 µM (inactive)
same,IC50,[5],> 100 µM (not active)
CC(=O)N1CCCc2cc(S(=O)(=O)N(CC(C)C)CC(C)C)ccc21,IC50,[4],> 100 µM (inactive)
same,IC50,[5],> 100 µM (not active)
Cc1ccc(NC(=S)c2nc3ccccc3[nH]2)c(C)c1,EC50,Streptokinase A,> 150 µM (not active)
same,EC50,[6],3.65 µM (active)
O=C(CCCCCn1c(SCc2ccncc2)nc2ccccc2c1=O)NCc1ccco1,IC50,[7],73.1 µM (not active)
same,IC50,[8],> 20 µM (inactive)
same,IC50,[9],35.8 µM (active)
